Assay results as given in ChEMBL document CHEMBL2150933 (J Med Chem, 2012).

What was measured:
Assay type in all cases: functional
[1] = test system: NCI-H226; assay: Cytotoxicity against human NCI-H226 cells after 48 hrs by SRB assay; conditions: NCI-H226, 48 h
[2] = test system: Hs-578T; assay: Cytotoxicity against human Hs578T cells after 48 hrs by SRB assay
[3] = test system: UACC-257; assay: Cytotoxicity against human UACC257 cells after 48 hrs by SRB assay; conditions: UACC-257, 48 h
[4] = test system: RXF 393; assay: Cytotoxicity against human RXF393 cells after 48 hrs by SRB assay; conditions: RXF 393, 48 h
[5] = test system: UACC-62; assay: Cytotoxicity against human UACC62 cells after 48 hrs by SRB assay; conditions: UACC-62, 48 h
[6] = test system: IGROV-1; assay: Cytotoxicity against human IGROV1 cells after 48 hrs by SRB assay; conditions: IGROV-1, 48 h
[7] = test system: NCI-H23; assay: Cytotoxicity against human NCI-H23 cells after 48 hrs by SRB assay; conditions: NCI-H23, 48 h
[8] = test system: HL-60; assay: Cytotoxicity against human HL60 cells after 48 hrs by SRB assay; conditions: HL-60, 48 h
[9] = test system: HOP-92; assay: Cytotoxicity against human HOP92 cells after 48 hrs by SRB assay; conditions: HOP-92, 48 h
[10] = test system: MDA-MB-468; assay: Cytotoxicity against human MDA-MB-468 cells after 48 hrs by SRB assay; conditions: MDA-MB-468, 48 h
[11] = test system: HCT-116; assay: Cytotoxicity against human HCT116 cells after 48 hrs by SRB assay; conditions: HCT-116, 48 h
[12] = test system: SW-620; assay: Cytotoxicity against human SW620 cells after 48 hrs by SRB assay; conditions: SW-620, 48 h
[13] = test system: PC-3; assay: Cytotoxicity against human PC3 cells after 48 hrs by SRB assay; conditions: PC-3, 48 h
[14] = test system: M14; assay: Cytotoxicity against human M14 cells after 48 hrs by SRB assay; conditions: M14, 48 h
[15] = test system: SK-MEL-28; assay: Cytotoxicity against human SK-MEL-28 cells after 48 hrs by SRB assay; conditions: SK-MEL-28, 48 h
[16] = test system: NCI-H522; assay: Cytotoxicity against human NCI-H522 cells after 48 hrs by SRB assay; conditions: NCI-H522, 48 h
[17] = test system: U-251; assay: Cytotoxicity against human U251 cells after 48 hrs by SRB assay; conditions: U-251, 48 h
[18] = test system: SK-MEL-5; assay: Cytotoxicity against human SK-MEL-5 cells after 48 hrs by SRB assay; conditions: SK-MEL-5, 48 h
[19] = test system: Malme-3M; assay: Cytotoxicity against human MALME-3M cells after 48 hrs by SRB assay
[20] = Cytotoxicity against human 786-O cells after 48 hrs by SRB assay; conditions: 786-0, 48 h
[21] = test system: SNB-19; assay: Cytotoxicity against human SNB19 cells after 48 hrs by SRB assay; conditions: SNB-19, 48 h
[22] = test system: SN12C; assay: Cytotoxicity against human SN12C cells after 48 hrs by SRB assay
[23] = test system: SK-MEL-2; assay: Cytotoxicity against human SK-MEL-2 cells after 48 hrs by SRB assay; conditions: SK-MEL-2, 48 h
[24] = test system: ACHN; assay: Cytotoxicity against human ACHN cells after 48 hrs by SRB assay
[25] = test system: RPMI-8226; assay: Cytotoxicity against human RPMI8226 cells after 48 hrs by SRB assay; conditions: RPMI-8226, 48 h
[26] = test system: CAKI-1; assay: Cytotoxicity against human Caki1 cells after 48 hrs by SRB assay; conditions: CAKI-1, 48 h
[27] = test system: MCF7; assay: Cytotoxicity against human MCF7 cells after 48 hrs by SRB assay; conditions: MCF7, 48 h
[28] = test system: HCT-15; assay: Cytotoxicity against human HCT15 cells after 48 hrs by SRB assay; conditions: HCT-15, 48 h
[29] = test system: BT-549; assay: Cytotoxicity against human BT549 cells after 48 hrs by SRB assay; conditions: BT-549, 48 h
[30] = test system: OVCAR-5; assay: Cytotoxicity against human OVCAR5 cells after 48 hrs by SRB assay; conditions: OVCAR-5, 48 h
[31] = test system: TK-10; assay: Cytotoxicity against human TK10 cells after 48 hrs by SRB assay; conditions: TK-10, 48 h
[32] = test system: A498; assay: Cytotoxicity against human A498 cells after 48 hrs by SRB assay; conditions: A498, 48 h
[33] = test system: CCRF-CEM; assay: Cytotoxicity against human CCRF-CEM cells after 48 hrs by SRB assay
[34] = test system: HT-29; assay: Cytotoxicity against human HT-29 cells after 48 hrs by SRB assay; conditions: HT-29, 48 h
[35] = test system: LOX IMVI; assay: Cytotoxicity against human LOXIMVI cells after 48 hrs by SRB assay
[36] = test system: COLO 205; assay: Cytotoxicity against human COLO205 cells after 48 hrs by SRB assay; conditions: COLO 205, 48 h
[37] = Cytotoxicity against human NCI-ADR-RES cells after 48 hrs by SRB assay
[38] = test system: MDA-MB-231; assay: Cytotoxicity against human MDA-MB-231 cells after 48 hrs by SRB assay; conditions: MDA-MB-231, 48 h
[39] = test system: OVCAR-4; assay: Cytotoxicity against human OVCAR4 cells after 48 hrs by SRB assay; conditions: OVCAR-4, 48 h
[40] = test system: OVCAR-8; assay: Cytotoxicity against human OVCAR8 cells after 48 hrs by SRB assay; conditions: OVCAR-8, 48 h
[41] = test system: A549; assay: Cytotoxicity against human A549 cells after 48 hrs by SRB assay; conditions: A549, 48 h
[42] = test system: SF-539; assay: Cytotoxicity against human SF539 cells after 48 hrs by SRB assay; conditions: SF-539, 48 h
[43] = test system: SR; assay: Cytotoxicity against human SR cells after 48 hrs by SRB assay
[44] = test system: KM12; assay: Cytotoxicity against human KM12 cells after 48 hrs by SRB assay; conditions: KM12, 48 h
[45] = test system: SNB-75; assay: Cytotoxicity against human SNB75 cells after 48 hrs by SRB assay; conditions: SNB-75, 48 h
[46] = test system: HOP-62; assay: Cytotoxicity against human HOP62 cells after 48 hrs by SRB assay; conditions: HOP-62, 48 h
[47] = test system: OVCAR-3; assay: Cytotoxicity against human OVCAR3 cells after 48 hrs by SRB assay; conditions: OVCAR-3, 48 h
[48] = test system: HCC 2998; assay: Cytotoxicity against human HCC2998 cells after 48 hrs by SRB assay; conditions: HCC 2998, 48 h
[49] = test system: SF-295; assay: Cytotoxicity against human SF295 cells after 48 hrs by SRB assay; conditions: SF-295, 48 h
[50] = test system: K562; assay: Cytotoxicity against human K562 cells after 48 hrs by SRB assay; conditions: K562, 48 h
[51] = test system: EKVX; assay: Cytotoxicity against human EKVX cells after 48 hrs by SRB assay
[52] = test system: DU-145; assay: Cytotoxicity against human DU145 cells after 48 hrs by SRB assay; conditions: DU-145, 48 h
[53] = test system: NCI-H460; assay: Cytotoxicity against human NCI-H460 cells after 48 hrs by SRB assay; conditions: NCI-H460, 48 h
[54] = test system: SK-OV-3; assay: Cytotoxicity against human SKOV3 cells after 48 hrs by SRB assay; conditions: SK-OV-3, 48 h
[55] = test system: UO-31; assay: Cytotoxicity against human UO31 cells after 48 hrs by SRB assay; conditions: UO-31, 48 h
[56] = test system: MDA-MB-435; assay: Cytotoxicity against human MDA-MB-435 cells after 48 hrs by SRB assay; conditions: MDA-MB-435, 48 h
[57] = test system: T47D; assay: Cytotoxicity against human T47D cells after 48 hrs by SRB assay
[58] = test system: SF-268; assay: Cytotoxicity against human SF268 cells after 48 hrs by SRB assay; conditions: SF-268, 48 h
[59] = test system: MOLT-4; assay: Cytotoxicity against human MOLT4 cells after 48 hrs by SRB assay; conditions: MOLT-4, 48 h

Q: Which results are given for CO[C@H](C(=O)[C@@H](O)[C@@H](C)O)[C@@H]1Cc2cc3cc(O[C@H]4C[C@@H](O[C@H]5C[C@@H](O)[C@H](O)[C@@H](C)O5)[C@H](O)[C@@H](C)O4)c(C)c(O)c3c(O)c2C(=O)[C@H]1O[C@H]1C[C@@H](O[C@H]2C[C@@H](O[C@H]3C[C@H](O)[C@H](O)[C@@H](C)O3)[C@H](O)[C@@H](C)O2)[C@H](O)[C@@H](C)O1?
A: GI50 [1]: 45.7 nM; GI50 [2]: 28.2 nM; GI50 [3]: 69.2 nM; GI50 [4]: 25.7 nM; GI50 [5]: 12.3 nM; GI50 ([6]; read-out: pGI50 (converted)): 75.9 nM; GI50 [7]: 41.7 nM; GI50 [8]: 53.7 nM; GI50 [9]: 30.2 nM; GI50 [10]: 50.1 nM; GI50 [11]: 19.5 nM; GI50 [12]: 29.5 nM; GI50 [13]: 100 nM; GI50 [14]: 100 nM; GI50 [15]: 27.5 nM; GI50 [16]: 14.1 nM; GI50 ([17]; read-out: pGI50 (converted)): 23.4 nM; GI50 ([18]; read-out: pGI50 (converted)): 27.5 nM; GI50 [19]: 24 nM; GI50 [20]: 61.7 nM; GI50 [21]: 43.6 nM; GI50 [22]: 35.5 nM; GI50 [23]: 33.9 nM; GI50 [24]: 155 nM; GI50 [25]: 11.8 nM; GI50 [26]: 229 nM; GI50 [27]: 12.9 nM; GI50 [28]: 1050 nM; GI50 [29]: 17 nM; GI50 [30]: 79.4 nM; GI50 [31]: 129 nM; GI50 [32]: 32.4 nM; GI50 [33]: 28.2 nM; GI50 [34]: 75.9 nM; GI50 [35]: 20.4 nM; GI50 ([36]; read-out: pGI50 (converted)): 49 nM; GI50 [37]: 7760 nM; GI50 ([38]; read-out: pGI50 (converted)): 132 nM; GI50 [39]: 209 nM; GI50 ([40]; read-out: pGI50 (converted)): 53.7 nM; GI50 ([41]; read-out: pGI50 (converted)): 41.7 nM; GI50 [42]: 33.1 nM; GI50 [43]: 14.1 nM; GI50 [44]: 29.5 nM; GI50 [45]: 30.2 nM; GI50 [46]: 56.2 nM; GI50 [47]: 69.2 nM; GI50 [48]: 61.7 nM; GI50 ([49]; read-out: pGI50 (converted)): 39.8 nM; GI50 [50]: 24.6 nM; GI50 [51]: 135 nM; GI50 [52]: 91.2 nM; GI50 [53]: 21.4 nM; GI50 [54]: 102 nM; GI50 [55]: 166 nM; GI50 [56]: 42.7 nM; GI50 [57]: 44.7 nM; GI50 [58]: 30.9 nM; GI50 [59]: 47.9 nM

Q: Which results are given for CO[C@H](C(=O)[C@@H](O)[C@@H](C)O)[C@@H]1Cc2cc3cc(O[C@H]4C[C@@H](O[C@@H]5C[C@@H](O)[C@H](O)[C@@H](C)O5)[C@H](O)[C@@H](C)O4)c(C)c(O)c3c(O)c2C(=O)[C@H]1O[C@H]1C[C@@H](O[C@@H]2C[C@@H](O)[C@@H](O[C@@H]3C[C@](C)(O)[C@H](O)[C@@H](C)O3)[C@@H](C)O2)[C@H](O)[C@@H](C)O1 [PLICAMYCIN]?
A: GI50 ([6]; read-out: GI50): 158 nM; GI50 ([17]; read-out: GI50): 63 nM; GI50 ([18]; read-out: GI50): 63 nM; GI50 ([36]; read-out: GI50): 63 nM; GI50 ([38]; read-out: GI50): 166 nM; GI50 ([40]; read-out: GI50): 79 nM; GI50 ([41]; read-out: GI50): 79 nM; GI50 ([49]; read-out: GI50): 79 nM
